Assay results from patent US10953094B2, “Pulse photodynamic treatment of photodamaged skin” (GALDERMA RESEARCH & DEVELOPMENT, priority 2013, dated 2021).

What was measured:
[1] = test system: facial photodamage; assay: Double-blind randomized-controlled trial of daylight PDT, efficacy in facial photodamage; type: in vivo, human
Description: (§1) A double-blind randomized-controlled trial has been conducted to determine whether daylight PDT is an efficient method for treating photodamaged skin. […] Neither the investigator nor the patient knew which agent was administered, as it was applied by a trained professional nurse. To enhance product/placebo penetration a subtle abrasion with sandpaper of the whole face was performed. Also, a sunscreen (Cetaphil Dermacontrol SPF30®) was applied to the entire sun-exposed area including the treatment area in both groups during daylight-PDT, to avoid sunburn. Efficacy was evaluated after 1 month of the third (last) daylight session.

[2] = Same daylight PDT trial, pain VAS and skin reactions 1 week after sessions; type: in vivo, human
Description: as §1, with “[…] Similarly, there were no statistical differences in the effects experimented by patients by patients one week after sessions, and in some of these variables no effect” for “Efficacy”, “found depending on each session (below table).” for “evaluated after 1 month of the third (last) daylight session.”

[3] = Pulse time investigation (Method B), PPIX formation in healthy volunteers; type: in vivo, human; conditions: PPIX formation after 3 hours; pulse times 20, 40, 60, 180 min
Description: (§2) The formation of PPIX after 3 hours is seen in FIG. 8, and the relation to inflammation is seen in FIG. 9. […] The results are illustrated in Column 3 in FIGS. 4, 5, 6, and 7. […] Pain level is not changed.
Twenty-four healthy male volunteers of Scandinavian ancestry were included in the study (mean age 30 years, range 20-51). A treatment area was selected on the inside of both forearms of the volunteer. Each treatment area was divided into four minor treatment fields of the size 2×5 cm with at least 3 cm between each field using a prefabricated flexible template. In order to imitate skin lesions all fields were tape stripped 10 times with occlusive dressing before treatment (Tegaderm™ Roll, 3M, Glostrup, Denmark). […]
All fields were covered with light-impermeable, occlusive dressing. […] During and after illumination pain was recorded. […]
5-MAL-induced PpIX fluorescence was depicted non-invasively using a fluorescence camera (Medeikonos AB, Gothenburg, Sweden). The amount of PpIX fluorescence was calculated from the photographs by the program MatLab® (MatLab®, MathWorks, Natic, US). The amount of fluorescence was measured before tape stripping and cream application (baseline) and before and after illumination.
The photo bleaching is then the difference in PpIX fluorescence (AU) calculated from the pre and post illumination images.

[4] = Pulse exposure 30 min (Method A), investigation of efficacy and inflammation; type: in vivo; conditions: 30 min pulse exposure vs conventional 3-hour exposure
Description: as §2

[5] = out of 30 subjects, 1 month after third daylight session
[6] = specific photodamage severity score, 1 month after third session
[7] = reaction 1 week after session 1
[8] = reaction 1 week after session 2
[9] = reaction 1 week after session 3

Compound: COC(=O)CCC(=O)CN [Metvix, methyl aminolevulinate]
- facial improvement, number of subjects [1, 5]: 14
- facial success, number of subjects [1, 5]: 11
- Coarse lines: failure, % of subjects [1, 6]: (30%)
- Coarse lines: improvement, % of subjects [1, 6]: (50%)
- Coarse lines: sucess, % of subjects [1, 6]: (20%)
- Erythema: failure, % of subjects [1, 6]: (20%)
- Erythema: improvement, % of subjects [1, 6]: (53.3%)
- Erythema: sucess, % of subjects [1, 6]: (26.7%)
- Fine lines: failure, % of subjects [1, 6]: (20%)
- Fine lines: improvement, % of subjects [1, 6]: (43.3%)
- Fine lines: sucess, % of subjects [1, 6]: (36.7%)
- Mottled pigmentation: failure, % of subjects [1, 6]: (23.3%)
- Mottled pigmentation: improvement, % of subjects [1, 6]: (60%)
- Mottled pigmentation: sucess, % of subjects [1, 6]: (16.7%)
- Sallowness: failure, % of subjects [1, 6]: (16.7%)
- Sallowness: improvement, % of subjects [1, 6]: (30%)
- Sallowness: sucess, % of subjects [1, 6]: (53.3%)
- Tactile roughness: failure, % of subjects [1, 6]: (16.7%)
- Tactile roughness: improvement, % of subjects [1, 6]: (20%)
- Tactile roughness: sucess, % of subjects [1, 6]: (63.3%)
- Pain VAS score, mean ([2]; after session 1): 0.80
- Pain VAS score, median ([2]; after session 1): (0)
- Pain VAS score, mean ([2]; after session 2): 0.60
- Pain VAS score, median ([2]; after session 2): (0)
- Pain VAS score, mean ([2]; after session 3): 1.13
- Pain VAS score, median ([2]; after session 3): (0)
- Desquamation score 0, % of subjects [2, 7]: (53.3%)
- Desquamation score 1, % of subjects [2, 7]: (30%)
- Desquamation score 2, % of subjects [2, 7]: (16.7%)
- Desquamation score 3, % of subjects [2, 7]: (0%)
- Erythema score 0, % of subjects [2, 7]: (66.7%)
- Erythema score 1, % of subjects [2, 7]: (26.7%)
- Erythema score 2, % of subjects [2, 7]: (6.7%)
- Erythema score 3, % of subjects [2, 7]: (0%)
- Oedema score 0, % of subjects [2, 7]: (100%)
- Oedema score 1, % of subjects [2, 7]: (0%)
- Oedema score 2, % of subjects [2, 7]: (0%)
- Oedema score 3, % of subjects [2, 7]: (0%)
- Oozing score 0, % of subjects [2, 7]: (100%)
- Oozing score 1, % of subjects [2, 7]: (0%)
- Oozing score 2, % of subjects [2, 7]: (0%)
- Oozing score 3, % of subjects [2, 7]: (0%)
- Pigmentation score 0, % of subjects [2, 7]: (96.7) %
- Pigmentation score 1, % of subjects [2, 7]: (3.3%)
- Pigmentation score 2, % of subjects [2, 7]: (0%)
- Pigmentation score 3, % of subjects [2, 7]: (0%)
- Vesiculation score 0, % of subjects [2, 7]: (100%)
- Vesiculation score 1, % of subjects [2, 7]: (0%)
- Vesiculation score 2, % of subjects [2, 7]: (0%)
- Vesiculation score 3, % of subjects [2, 7]: (0%)
- Desquamation score 0, % of subjects [2, 8]: (50%)
- Desquamation score 1, % of subjects [2, 8]: (40%)
- Desquamation score 2, % of subjects [2, 8]: (10%)
- Desquamation score 3, % of subjects [2, 8]: (0%)
- Erythema score 0, % of subjects [2, 8]: (63.3%)
- Erythema score 1, % of subjects [2, 8]: (36.7%)
- Erythema score 2, % of subjects [2, 8]: (0%)
- Erythema score 3, % of subjects [2, 8]: (0%)
- Oedema score 0, % of subjects [2, 8]: (100%)
- Oedema score 1, % of subjects [2, 8]: (0%)
- Oedema score 2, % of subjects [2, 8]: (0%)
- Oedema score 3, % of subjects [2, 8]: (0%)
- Oozing score 0, % of subjects [2, 8]: (100%)
- Oozing score 1, % of subjects [2, 8]: (0%)
- Oozing score 2, % of subjects [2, 8]: (0%)
- Oozing score 3, % of subjects [2, 8]: (0%)
- Pigmentation score 0, % of subjects [2, 8]: (96.7%)
- Pigmentation score 1, % of subjects [2, 8]: (3.3%)
- Pigmentation score 2, % of subjects [2, 8]: (0%)
- Pigmentation score 3, % of subjects [2, 8]: (0%)
- Vesiculation score 0, % of subjects [2, 8]: (100%)
- Vesiculation score 1, % of subjects [2, 8]: (0%)
- Vesiculation score 2, % of subjects [2, 8]: (0%)
- Vesiculation score 3, % of subjects [2, 8]: (0%)
- Desquamation score 0, % of subjects [2, 9]: (50%)
- Desquamation score 1, % of subjects [2, 9]: (40%)
- Desquamation score 2, % of subjects [2, 9]: (10%)
- Desquamation score 3, % of subjects [2, 9]: (0%)
- Erythema score 0, % of subjects [2, 9]: (76.7%)
- Erythema score 1, % of subjects [2, 9]: (23.3%)
- Erythema score 2, % of subjects [2, 9]: (0%)
- Erythema score 3, % of subjects [2, 9]: (0%)
- Oedema score 0, % of subjects [2, 9]: (100%)
- Oedema score 1, % of subjects [2, 9]: (0%)
- Oedema score 2, % of subjects [2, 9]: (0%)
- Oedema score 3, % of subjects [2, 9]: (0%)
- Oozing score 0, % of subjects [2, 9]: (100%)
- Oozing score 1, % of subjects [2, 9]: (0%)
- Oozing score 2, % of subjects [2, 9]: (0%)
- Oozing score 3, % of subjects [2, 9]: (0%)
- Pigmentation score 0, % of subjects [2, 9]: (86.7%)
- Pigmentation score 1, % of subjects [2, 9]: (13.3%)
- Pigmentation score 2, % of subjects [2, 9]: (10%)
- Pigmentation score 3, % of subjects [2, 9]: (0%)
- Vesiculation score 0, % of subjects [2, 9]: (100%)
- Vesiculation score 1, % of subjects [2, 9]: (0%)
- Vesiculation score 2, % of subjects [2, 9]: (0%)
- Vesiculation score 3, % of subjects [2, 9]: (0%)
- pulse exposure time at which PPIX concentration speeds up [3]: 20 to 40 min
- Pain level [4]: not changed
- inflammation (erythema) [4]: clearly diminishes
